This note sets out measurements from patent US20170081368A1, “PEPTIDES AS OXYTOCIN AGONISTS” (Hoffmann-La Roche Inc., priority 2014, published 2017).

Where a SMILES comes first, the peptide text is derived from it.

Test [1] concerns the target T1, human Oxytocin (OTR) receptor (Homo sapiens, UniProt P30559).
T1 construct: expressed in transfected cells
T1 sequence (P30559 1-389): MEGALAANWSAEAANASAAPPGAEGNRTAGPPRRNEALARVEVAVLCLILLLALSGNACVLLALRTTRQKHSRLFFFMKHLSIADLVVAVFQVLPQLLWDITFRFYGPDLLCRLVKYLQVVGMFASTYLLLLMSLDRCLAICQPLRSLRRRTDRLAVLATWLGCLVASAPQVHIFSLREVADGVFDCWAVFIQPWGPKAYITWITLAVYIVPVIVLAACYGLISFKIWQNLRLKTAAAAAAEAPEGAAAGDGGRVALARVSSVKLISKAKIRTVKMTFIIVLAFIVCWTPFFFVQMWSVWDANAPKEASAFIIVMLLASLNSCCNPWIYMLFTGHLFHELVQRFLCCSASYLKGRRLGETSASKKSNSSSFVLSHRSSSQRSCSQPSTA
Put plainly: Calcium flux assay (FLIPR) in CHO cells expressing human OTR. It counts as cell-based. The note with it: for Emax: CHO, read-out: hOT efficacy; for Emax / hOT efficacy: maximum response normalized to endogenous full agonist = 100%; for EC50: agonist mode, CHO cells, calcium flux FLIPR, read-out: hOT EC50. The source says:
(§1) Chines Hamster Ovary (CHO) cells were transfected with expression plasmids encoding either the human Vla, the human Oxytocin (OTR) or the humanV2 receptor, the later in combination with the chimeric Gqs5 G protein to redirect the signal to Calcium flux. Stable cells were cloned by limiting dilution to yield monoclonal cell lines expressing either human Vla, human V2+Gqs5 or human OTR receptors and selected based on functional responses detected on a fluorometric imaging plate reader (FLIPR) detecting Calcium flux in the cell after receptor activation. The stable cell lines were grown in F-12 K Nutrient Mixture (Kaighns Modification), containing 10% foetal bovine serum (FBS), 1% penicillin-streptomycin, 1% L-glutamate, 200 ug/ml Geneticin at 37° C. in a 10% CO2 incubator at 95% humidity.
(§2) Calcium Flux Assays Using Fluorescent Imaging (Fluorometric Imaging Plate Reader, FLIPR)
(§3) On the afternoon before the assay, cells were plated at a density of 50,000 cells/well into black 96 well plates with clear bottoms to allow cell inspection and fluorescence measurements from the bottom of each well. The density of cells was sufficient to yield a confluent monolayer the next day. Hanks balanced salt solution, without phenol red, containing 20 mM HEPES (pH 7.3) and 2.5 mM probenecid (assay buffer) was prepared fresh for each experiment. Compound dilutions were made using a Beckman Biomek 2000 laboratory automation workstation, in assay buffer containing 1% DMSO. The dye-loading buffer consisted of a final concentration of 2 μM Fluo-4-AM (dissolved in DMSO and pluronic acid) in assay buffer. The existing culture media was removed from the wells and 100 μl of the dye-loading buffer was added to each well and incubated for approximately 60 min at 37° C. in a 5% CO2 incubator at 95% humidity. Once dye-loaded, the cells were washed thoroughly on an Embla cell washer with the assay buffer to remove any unincorporated dye. Exactly 100 μl assay buffer was left in each well.
(§4) Each 96 well plate containing dye-loaded cells was placed into the FLIPR machine and the laser intensity set to a suitable level to detect low basal fluorescence. To test compounds as agonists, 25 μl diluted compound was added to the plate 10 seconds into the fluorescent measurements and fluorescent response was recorded for 5 minutes. The fluorescence data was normalized to the endogenous full agonist dose-response set at 100% for the maximum response and 0% for the minimum. Each agonist concentration-response curve was constructed using a four parameter logistic equation with Microsoft Excel XLFit as follows: Y=Minimum+((Maximum−Minimum)/(1+10^(LogEC50−X)nH)), where y is the % normalized fluorescence, minimum is the minimum y, maximum is the maximum y, log EC50 is the log10 concentration which produces 50% of the maximum induced fluorescence, x is the log10 of the concentration of the agonist compound and H is the slope of the curve (the Hill Coefficient). The maximum value gives the efficacy of the agonist test compound in percentage. The concentration of agonist that produced a half-maximal response is represented by the EC50 value, the logarithm of which yielded the pEC50 value.
In general terms: Calcium assays in cells follow changes in intracellular calcium, usually with a dye or a luminescent sensor.

The target in a further test is T2, human V2 receptor (Homo sapiens, UniProt P30518).
T2 construct: expressed in transfected cells
T2 sequence (P30518 whole entry): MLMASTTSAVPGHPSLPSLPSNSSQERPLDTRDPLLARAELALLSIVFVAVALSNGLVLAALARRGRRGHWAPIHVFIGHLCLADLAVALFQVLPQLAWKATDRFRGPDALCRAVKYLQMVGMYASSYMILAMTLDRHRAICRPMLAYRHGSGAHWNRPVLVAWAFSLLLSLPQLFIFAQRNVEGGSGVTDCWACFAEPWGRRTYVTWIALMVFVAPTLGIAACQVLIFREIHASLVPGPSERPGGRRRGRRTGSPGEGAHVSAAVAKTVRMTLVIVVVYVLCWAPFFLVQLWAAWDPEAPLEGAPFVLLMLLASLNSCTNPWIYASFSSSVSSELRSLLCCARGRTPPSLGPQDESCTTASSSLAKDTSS
In words: Calcium flux assay (FLIPR) in CHO cells expressing human V2+Gqs5. The note with it: for Emax: CHO, maximum response normalized to endogenous full agonist = 100%, read-out: hV2 efficacy; for EC50: agonist mode, CHO cells with chimeric Gqs5, calcium flux FLIPR, read-out: hV2 EC50. It counts as cell-based.
Source text: as §1, §2, §3, §4

On to `CC[C@H](C)[C@@H]1NC(=O)[C@H](Cc2ccc(O)cc2)NC(=O)CCS(=O)(=O)CC[C@@H](C(=O)N(C)CC(=O)N[C@@H](Cc2ccccc2)C(=O)NCC(N)=O)NC(=O)[C@H](CC(N)=O)NC(=O)[C@H](CCC(N)=O)NC1=O` [Example 16] (HELM PEPTIDE1{Y.I.Q.N.[O=C([C@H](CCS(=O)(=O)CCC(=O)[*:3])N[*:1])[*:2]].[Sar].F.G.[am]}$PEPTIDE1,PEPTIDE1,1:R1-5:R3$$$V2.0), for which, in test [1], the Emax turned out to be 104% and the EC50 (as a rule, the concentration giving half of the maximal effect) was found to be 5.6 nM.

In the case of `CC[C@H](C)[C@@H]1NC(=O)[C@H](Cc2ccc(O)cc2)NC(=O)CCS(=O)(=O)CC[C@@H](C(=O)N(C)CC(=O)N[C@@H](Cc2ccc(O)cc2)C(=O)NCC(N)=O)NC(=O)[C@H](CC(N)=O)NC(=O)[C@H](CCC(N)=O)NC1=O` [Example 17] (HELM PEPTIDE1{Y.I.Q.N.[O=C([C@H](CCS(=O)(=O)CCC(=O)[*:3])N[*:1])[*:2]].[Sar].Y.G.[am]}$PEPTIDE1,PEPTIDE1,1:R1-5:R3$$$V2.0), in test [1], the Emax worked out at 105% and the EC50 was 2.2 nM.

In the case of `CC[C@H](C)[C@@H]1NC(=O)[C@H](Cc2ccc(O)cc2)NC(=O)CCS(=O)(=O)CC[C@@H](C(=O)N(C)CC(=O)N[C@@H](CO)C(=O)NCC(N)=O)NC(=O)[C@H](CC(N)=O)NC(=O)[C@H](CCC(N)=O)NC1=O` [Example 18] (HELM PEPTIDE1{Y.I.Q.N.[O=C([C@H](CCS(=O)(=O)CCC(=O)[*:3])N[*:1])[*:2]].[Sar].S.G.[am]}$PEPTIDE1,PEPTIDE1,1:R1-5:R3$$$V2.0; C-terminus assumed; bridges inferred), the Emax in test [1] was determined as 102%.

With `CC[C@H](C)[C@@H]1NC(=O)[C@H](Cc2ccc(O)cc2)NC(=O)CCS(=O)(=O)CC[C@@H](C(=O)N(C)CC(=O)N[C@@H](C)C(=O)NCC(N)=O)NC(=O)[C@H](CC(N)=O)NC(=O)[C@H](CCC(N)=O)NC1=O` [Example 19] (HELM PEPTIDE1{Y.I.Q.N.[O=C([C@H](CCS(=O)(=O)CCC(=O)[*:3])N[*:1])[*:2]].[Sar].A.G.[am]}$PEPTIDE1,PEPTIDE1,1:R1-5:R3$$$V2.0), in test [1], the Emax came to 110% and the EC50 was 1.4 nM.

For `CC[C@H](C)[C@@H]1NC(=O)[C@H](Cc2ccc(O)cc2)NC(=O)CCS(=O)(=O)CC[C@@H](C(=O)N(C)CC(=O)N[C@@H](CN)C(=O)NCC(N)=O)NC(=O)[C@H](CC(N)=O)NC(=O)[C@H](CCC(N)=O)NC1=O` [Example 20] (HELM PEPTIDE1{Y.I.Q.N.[O=C([C@H](CCS(=O)(=O)CCC(=O)[*:3])N[*:1])[*:2]].[Sar].[NC[C@H](N[*:1])C(=O)[*:2]].G.[am]}$PEPTIDE1,PEPTIDE1,1:R1-5:R3$$$V2.0), in test [1], the Emax was determined as 113% and the EC50 is 12.9 nM.

Consider `CC[C@H](C)[C@@H]1NC(=O)[C@H](Cc2ccc(O)cc2)NC(=O)CCS(=O)(=O)CC[C@@H](C(=O)N(C)CC(=O)N[C@H](C(=O)NCC(N)=O)C2CCCCC2)NC(=O)[C@H](CC(N)=O)NC(=O)[C@H](CCC(N)=O)NC1=O` [Example 21] (HELM PEPTIDE1{Y.I.Q.N.[O=C([C@H](CCS(=O)(=O)CCC(=O)[*:3])N[*:1])[*:2]].[Sar].[O=C([C@@H](N[*:1])C1CCCCC1)[*:2]].G.[am]}$PEPTIDE1,PEPTIDE1,1:R1-5:R3$$$V2.0), for which, in test [1], the Emax was determined as 117% and the EC50 came to 0.4 nM.

With `CC[C@H](C)[C@@H]1NC(=O)[C@H](Cc2ccc(O)cc2)NC(=O)CCS(=O)(=O)CC[C@@H](C(=O)N(C)CC(=O)N[C@@](C)(CC(C)C)C(=O)NCC(N)=O)NC(=O)[C@H](CC(N)=O)NC(=O)[C@H](CCC(N)=O)NC1=O` [Example 22] (HELM PEPTIDE1{Y.I.Q.N.[O=C([C@H](CCS(=O)(=O)CCC(=O)[*:3])N[*:1])[*:2]].[Sar].[CC(C)C[C@](C)(N[*:1])C(=O)[*:2]].G.[am]}$PEPTIDE1,PEPTIDE1,1:R1-5:R3$$$V2.0), in test [1], the Emax is 109% and the EC50 turned out to be 2.5 nM.

As for `CCC[C@H](NC(=O)[C@@H]1CCS(=O)(=O)CCC(=O)N[C@@H](Cc2ccc(O)cc2)C(=O)N[C@@H]([C@@H](C)CC)C(=O)N[C@@H](CCC(N)=O)C(=O)N[C@@H](CC(N)=O)C(=O)N1)C(=O)N[C@@H](CC(C)C)C(=O)NCC(N)=O` [Example 23] (HELM PEPTIDE1{Y.I.Q.N.[O=C([C@H](CCS(=O)(=O)CCC(=O)[*:3])N[*:1])[*:2]].[Nva].L.G.[am]}$PEPTIDE1,PEPTIDE1,1:R1-5:R3$$$V2.0), in test [1], the EC50 was 23 nM and the hOT efficacy amounted to 123%.

For `CCCC[C@H](NC(=O)[C@@H]1CCS(=O)(=O)CCC(=O)N[C@@H](Cc2ccc(O)cc2)C(=O)N[C@@H]([C@@H](C)CC)C(=O)N[C@@H](CCC(N)=O)C(=O)N[C@@H](CC(N)=O)C(=O)N1)C(=O)N[C@@H](CC(C)C)C(=O)NCC(N)=O` [Example 24] (HELM PEPTIDE1{Y.I.Q.N.[O=C([C@H](CCS(=O)(=O)CCC(=O)[*:3])N[*:1])[*:2]].[Nle].L.G.[am]}$PEPTIDE1,PEPTIDE1,1:R1-5:R3$$$V2.0), in test [1], the EC50 worked out at 40 nM and the hOT efficacy was determined as 114%.

In the case of `CC[C@H](C)[C@@H]1NC(=O)[C@H](Cc2ccc(O)cc2)NC(=O)CCS(=O)(=O)CC[C@@H](C(=O)N[C@@H](CO)C(=O)N[C@@H](CC(C)C)C(=O)NCC(N)=O)NC(=O)[C@H](CC(N)=O)NC(=O)[C@H](CCC(N)=O)NC1=O` [Example 25] (HELM PEPTIDE1{Y.I.Q.N.[O=C([C@H](CCS(=O)(=O)CCC(=O)[*:3])N[*:1])[*:2]].S.L.G.[am]}$PEPTIDE1,PEPTIDE1,1:R1-5:R3$$$V2.0), in test [1], the EC50 was 16 nM and the hOT efficacy was 137%.

For the compound `CC[C@H](C)[C@@H]1NC(=O)[C@H](Cc2ccc(O)cc2)NC(=O)CCS(=O)(=O)CC[C@@H](C(=O)N[C@@H](CCO)C(=O)N[C@@H](CC(C)C)C(=O)NCC(N)=O)NC(=O)[C@H](CC(N)=O)NC(=O)[C@H](CCC(N)=O)NC1=O` [Example 26] (HELM PEPTIDE1{Y.I.Q.N.[O=C([C@H](CCS(=O)(=O)CCC(=O)[*:3])N[*:1])[*:2]].[O=C([C@H](CCO)N[*:1])[*:2]].L.G.[am]}$PEPTIDE1,PEPTIDE1,1:R1-5:R3$$$V2.0), in test [1], the Emax was 140% and the EC50 was found to be 7 nM.

As for `CC[C@H](C)[C@@H]1NC(=O)[C@H](Cc2ccc(O)cc2)NC(=O)CCS(=O)(=O)CC[C@@H](C(=O)N(CC(=O)N[C@H](C(=O)NCC(N)=O)C(C)C)C2CC2)NC(=O)[C@H](CC(N)=O)NC(=O)[C@H](CCC(N)=O)NC1=O` [Example 29] (HELM PEPTIDE1{Y.I.Q.N.[O=C([C@H](CCS(=O)(=O)CCC(=O)[*:3])N[*:1])[*:2]].[O=C(CN(C1CC1)[*:1])[*:2]].V.G.[am]}$PEPTIDE1,PEPTIDE1,1:R1-5:R3$$$V2.0), in test [1], the Emax was 105% and the EC50 was found to be 0.5 nM. In addition, on human V2 receptor, the Emax stood at 143% and the EC50 was determined as 3340 nM.

Regarding `CC[C@H](C)[C@@H]1NC(=O)[C@H](Cc2ccc(O)cc2)NC(=O)CCS(=O)(=O)CC[C@@H](C(=O)N(CC(=O)NC(C)(C)C(=O)NCC(N)=O)C2CC2)NC(=O)[C@H](CC(N)=O)NC(=O)[C@H](CCC(N)=O)NC1=O` [Example 30] (HELM PEPTIDE1{Y.I.Q.N.[O=C([C@H](CCS(=O)(=O)CCC(=O)[*:3])N[*:1])[*:2]].[O=C(CN(C1CC1)[*:1])[*:2]].[Aib].G.[am]}$PEPTIDE1,PEPTIDE1,1:R1-5:R3$$$V2.0), in test [1], the EC50 was determined as 1 nM and the hOT efficacy was 97%. At human V2 receptor, the Emax came to 131% and the EC50 is 6340 nM.
